# Results: patent US4584377A, “Novel Fredericamycin A derivatives” (SS Pharmaceutical Co., Ltd., priority 1983, dated 1986)
# What was measured:
# Ehrlich carcinoma = test: Antitumor effect, survival of tumor-inoculated mice; type: in vivo, ICR mice; conditions: intraperitoneally, once a day for 10 days
# [1] = tested on: Staphylococcus epidermidis ATCC 12228; test: MIC, antibacterial activity (agar culture); type: cell-based; conditions: ATCC12228, 37° C., 18-20 hours, Mueller-Hinton agar, read-out: Minimum inhibitory concentration MIC
# [2] = tested on: Piricularia oryzae IAM 5016; test: microbe, parasite or virus in culture; type: cell-based; conditions: 120 h; read-out: Minimum inhibitory concentration MIC
# mouse leukemia P-388 = test: Antitumor effect, survival of tumor-inoculated mice; type: in vivo, CDF1 mice; conditions: intraperitoneally, once a day for 10 days
# Method: (§1) Antitumor effects of some Fredericamycin A derivatives against Ehrlich carcinoma, Meth-A fibrosarcoma and mouse leukemia P-388 were tested in accordance with the following procedures. Antitumor effects against Ehrlich carcinoma and Meth-A fibrosarcoma are expressed by percentage of mean survival time of test and control animals. Antitumor effects against P-388 are expressed by percentage of median survival time of test and control animals.
# (§2) (ii) Meth-A fibrosarcoma and mouse leukemia P-388:
# (§3) 1×10^6 tumor cells were inoculated to CDF1 mice (.male., Charles River Japan Inc.) intraperitoneally. Each tested compound was given intraperitoneally once a day for 10 days from 1 day after tumor inoculation.
# physchem = type: physicochemical; conditions: 10 μg/ml in dimethylsulfoxide/physiological saline; for Percentage remainder: 0 hr.; for remaining at 3 h / remaining at 6 h / remaining at 24 h / remaining at 48 h / remaining at 72 h: read-out: Percentage remainder
# Method: The stability of some Fredericamycin A derivatives and Fredericamycin A in their aqueous solutions were tested in accordance with the following procedures.
# The test compounds were individually dissolved in dimethylsulfoxide, followed by dilution of the resulting solutions with physiological saline to adjust the final concentrations of the test compounds and Fredericamycin to 10 μg/ml respectively. The thus-prepared test solutions were then subjected to high performance liquid chromatography after predetermined time intervals to measure the percentage remainders of the test compounds.
# Meth-A fibrosarcoma = test: Antitumor effect, survival of tumor-inoculated mice; type: in vivo, CDF1 mice; conditions: intraperitoneally, once a day for 10 days
# Method: as §1, §2, §3
# [3] = Mus musculus, ip, 240 h, 0.5 mg/kg/day, read-out: percentage of mean survival time of test and control animals
# [4] = Mus musculus, ip, 240 h, 1.0 mg/kg/day, read-out: percentage of mean survival time of test and control animals
# [5] = Mus musculus, ip, 240 h, 2.0 mg/kg/day, read-out: percentage of mean survival time of test and control animals
smiles,measurement,setting,value
"C/C=C/C=C/c1cc2cc3c(c(O)c2c(=O)[nH]1)C1(CC3)C(=O)c2c(OC(=O)CC(C)C)c3c(c(OC(=O)CC(C)C)c2C1=O)C(=O)C(OC)=CC3=O (centres unmarked) [Compound 2, Fredericamycin A diisovalerate]",response vs control in vivo at 0.5 mg/kg/day,Ehrlich carcinoma; [3],120%
same,response vs control in vivo at 1 mg/kg/day,Ehrlich carcinoma; [4],> 168%
same,response vs control in vivo at 2 mg/kg/day,Ehrlich carcinoma; [5],> 229%
"C/C=C/C=C/c1cc2cc3c(c(O)c2c(=O)[nH]1)C1(CC3)C(=O)c2c(OC(=O)c3ccc(C)cc3)c3c(c(OC(=O)c4ccc(C)cc4)c2C1=O)C(=O)C(OC)=CC3=O (centres unmarked) [Compound 3, Fredericamycin A di-p-methylbenzoate]",MIC,[1],25 µg/mL
same,MIC,[2],6.25 µg/mL
C/C=C/C=C/c1cc2cc3c(c(O)c2c(=O)[nH]1)C1(CC3)C(=O)c2c(OC(=O)CC)c3c(c(OC(=O)CC)c2C1=O)C(=O)C(OC)=CC3=O (centres unmarked) [Compound 4],percentage of mean survival time of test and control animals,Ehrlich carcinoma; 0.5 mg/kg/day,over 282%
same,percentage of mean survival time of test and control animals,Ehrlich carcinoma; 1.0 mg/kg/day,over 288%
same,percentage of mean survival time of test and control animals,Ehrlich carcinoma; 2.0 mg/kg/day,50%
C/C=C/C=C/c1cc2cc3c(c(O)c2c(=O)[nH]1)C1(CC3)C(=O)c2c(OC(=O)CCCCCCCCCCC)c3c(c(OC(=O)CCCCCCCCCCC)c2C1=O)C(=O)C(OC)=CC3=O (centres unmarked) [Compound 7],MIC,[1],25 µg/mL
same,MIC,[2],1.56 µg/mL
same,percentage of mean survival time of test and control animals,Ehrlich carcinoma; 0.5 mg/kg/day,104%
same,percentage of mean survival time of test and control animals,Ehrlich carcinoma; 1.0 mg/kg/day,96%
same,percentage of mean survival time of test and control animals,Ehrlich carcinoma; 2.0 mg/kg/day,194%
C/C=C/C=C/c1cc2cc3c(c(O)c2c(=O)[nH]1)C1(CC3)C(=O)c2c(OC(=O)c3ccccc3)c3c(c(OC(=O)c4ccccc4)c2C1=O)C(=O)C(OC)=CC3=O (centres unmarked) [Compound 8],response vs control in vivo at 0.5 mg/kg/day,Ehrlich carcinoma; [3],166%
same,response vs control in vivo at 1 mg/kg/day,Ehrlich carcinoma; [4],> 199%
same,response vs control in vivo at 2 mg/kg/day,Ehrlich carcinoma; [5],97%
C/C=C/C=C/c1cc2cc3c(c(O)c2c(=O)[nH]1)C1(CC3)C(=O)c2c(OC(=O)c3ccc(Cl)cc3)c3c(c(OC(=O)c4ccc(Cl)cc4)c2C1=O)C(=O)C(OC)=CC3=O (centres unmarked) [Compound 11],response vs control in vivo at 0.5 mg/kg/day,Ehrlich carcinoma; [3],> 139%
same,response vs control in vivo at 1 mg/kg/day,Ehrlich carcinoma; [4],> 198%
same,response vs control in vivo at 2 mg/kg/day,Ehrlich carcinoma; [5],> 260%
"CCCCCc1cc2cc3c(c(O)c2c(=O)[nH]1)C1(CC3)C(=O)c2c(c(OC(C)=O)c3c(OC(C)=O)c(OC)cc(OC(C)=O)c3c2OC(C)=O)C1=O (centres unmarked) [Compound 12, leucotetraacetyltetrahydrofredericamycin A]",percentage of median survival time of test and control animals,mouse leukemia P-388; 2.0 mg/kg/day,142%
same,percentage of median survival time of test and control animals,mouse leukemia P-388; 4.0 mg/kg/day,146%
same,percentage of median survival time of test and control animals,mouse leukemia P-388; 8.0 mg/kg/day,152%
same,Percentage remainder,physchem,100%
same,remaining at 3 h,physchem,99%
same,remaining at 6 h,physchem,98.3%
same,remaining at 24 h,physchem,97.1%
same,remaining at 48 h,physchem,95.7%
same,remaining at 72 h,physchem,94.4%
same,response vs control in vivo at 2 mg/kg/day,Ehrlich carcinoma; [5],116%
same,response vs control in vivo at 4 mg/kg/day,"Ehrlich carcinoma; Mus musculus, ip, 240 h, 4.0 mg/kg/day, read-out: percentage of mean survival time of test and control animals",136%
same,response vs control in vivo at 8 mg/kg/day,"Ehrlich carcinoma; Mus musculus, ip, 240 h, 8.0 mg/kg/day, read-out: percentage of mean survival time of test and control animals",> 203%
"CCCCCc1cc2cc3c(c(O)c2c(=O)[nH]1)C1(CC3)C(=O)c2c(O)c3c(c(O)c2C1=O)C(=O)C(OC)=CC3=O (centres unmarked) [Compound 17, tetrahydrofredericamycin A]",percentage of median survival time of test and control animals,mouse leukemia P-388; 2.0 mg/kg/day,130%
same,percentage of median survival time of test and control animals,mouse leukemia P-388; 4.0 mg/kg/day,143%
same,percentage of median survival time of test and control animals,mouse leukemia P-388; 8.0 mg/kg/day,152%
same,percentage of mean survival time of test and control animals,Meth-A fibrosarcoma; 0.25 mg/kg/day,102%
same,percentage of mean survival time of test and control animals,Meth-A fibrosarcoma; 0.5 mg/kg/day,129%
same,percentage of mean survival time of test and control animals,Meth-A fibrosarcoma; 1.0 mg/kg/day,164%
same,percentage of mean survival time of test and control animals,Meth-A fibrosarcoma; 2.0 mg/kg/day,232%
same,response vs control in vivo at 0.125 mg/kg/day,"Ehrlich carcinoma; Mus musculus, ip, 240 h, 0.125 mg/kg/day, read-out: percentage of mean survival time of test and control animals",187%
same,response vs control in vivo at 0.25 mg/kg/day,"Ehrlich carcinoma; Mus musculus, ip, 240 h, 0.25 mg/kg/day, read-out: percentage of mean survival time of test and control animals",248%
same,response vs control in vivo at 0.5 mg/kg/day,Ehrlich carcinoma; [3],250%
CCCCCCCCCCCC(=O)Oc1c2c(c(OC(=O)CCCCCCCCCCC)c3c1C(=O)C1(CCc4cc5cc(CCCCC)[nH]c(=O)c5c(O)c41)C3=O)C(=O)C(OC)=CC2=O (centres unmarked) [Compound 21],Percentage remainder,physchem,100%
same,remaining at 3 h,physchem,95.3%
same,remaining at 6 h,physchem,92.2%
same,remaining at 24 h,physchem,87.3%
same,remaining at 48 h,physchem,80.5%
same,remaining at 72 h,physchem,74.8%
